# Results reported in the supplement of paper PMC10307832.
# Tests used:
# Test in all cases: relative viability (nuclei count vs DMSO), 5 days (fraction); higher = more cells survive
# LU99A = test system: LU99A
# Summary of the method: (§1)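 Values are medians from duplicate plates. Each reflects relative viability, defined as the nuclei count of treated wells over that of vehicle wells. Lung cancer cell lines in 1536-well plates were pin-tool dosed one day after seeding with one drug alone or with a fixed anchor-drug dose plus five library-drug doses (not always all listed) in √10 steps, then fixed, stained and imaged at 4× after 5 days.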
# NCI-H1437 = test system: NCI-H1437
# Summary of the method: as §1
# NCI-H441 = test system: NCI-H441
# Summary of the method: as §1
# LK-2 = test system: LK-2
# Summary of the method: as §1
# ABC-1 = test system: ABC-1
# Summary of the method: as §1
# EKVX = test system: EKVX
# Summary of the method: as §1
# COR-L 105 = test system: COR-L 105
# Summary of the method: as §1
# NCI-H838 = test system: NCI-H838
# Summary of the method: as §1
# BEN = test system: BEN
# Summary of the method: as §1
# HARA = test system: HARA
# Summary of the method: as §1
# NCI-H1666 = test system: NCI-H1666
# Summary of the method: as §1
# 201T = test system: 201T
# Summary of the method: as §1
# NCI-H1650 = test system: NCI-H1650
# Summary of the method: as §1
# PC-14 = test system: PC-14
# Summary of the method: as §1
# CAL-12T = test system: CAL-12T
# Summary of the method: as §1
# NCI-H2009 = test system: NCI-H2009
# Summary of the method: as §1
# SW 900 = test system: SW 900
# Summary of the method: as §1
# NCI-H661 = test system: NCI-H661
# Summary of the method: as §1
# COR-L23 = test system: COR-L23
# Summary of the method: as §1
# NCI-H3122 = test system: NCI-H3122
# Summary of the method: as §1
# NCI-H727 = test system: NCI-H727
# Summary of the method: as §1
# HCC-366 = test system: HCC-366
# Summary of the method: as §1
# NCI-H2170 = test system: NCI-H2170
# Summary of the method: as §1
smiles,measurement,setting,value
NC(=O)Nc1cc(-c2cccc(F)c2)sc1C(=O)N[C@H]1CCCNC1 [AZD7762] + COc1cc2c(Oc3ccc(NC(=O)C4(C(=O)Nc5ccc(F)cc5)CC4)cc3F)ccnc2cc1OCCCN1CCOCC1 [Foretinib] (partner 0.25 µM),relative viability,LU99A; first compound 0.01 µM,0.798
same,relative viability,LU99A; first compound 0.03162 µM,0.828
same,relative viability,LU99A; first compound 0.1 µM,0.791
same,relative viability,LU99A; first compound 0.3162 µM,0.822
same,relative viability,LU99A; first compound 1 µM,0.537
same,relative viability,NCI-H1437; first compound 0.01 µM,1.27
same,relative viability,NCI-H1437; first compound 0.03162 µM,1.31
same,relative viability,NCI-H1437; first compound 0.1 µM,1.24
same,relative viability,NCI-H1437; first compound 0.3162 µM,1.02
same,relative viability,NCI-H1437; first compound 1 µM,1.13
same,relative viability,NCI-H441; first compound 0.01 µM,1.3
same,relative viability,NCI-H441; first compound 0.03162 µM,1.07
same,relative viability,NCI-H441; first compound 0.1 µM,1.11
same,relative viability,NCI-H441; first compound 0.3162 µM,1.19
same,relative viability,NCI-H441; first compound 1 µM,0.955
same,relative viability,LK-2; first compound 0.01 µM,1.38
same,relative viability,LK-2; first compound 0.03162 µM,1.34
same,relative viability,LK-2; first compound 0.1 µM,1.11
same,relative viability,LK-2; first compound 0.3162 µM,0.864
same,relative viability,LK-2; first compound 1 µM,0.722
same,relative viability,ABC-1; first compound 0.01 µM,1.22
same,relative viability,ABC-1; first compound 0.03162 µM,1.23
same,relative viability,ABC-1; first compound 0.1 µM,0.851
same,relative viability,ABC-1; first compound 0.3162 µM,0.402
same,relative viability,ABC-1; first compound 1 µM,0.212
same,relative viability,EKVX; first compound 0.01 µM,0.64
same,relative viability,EKVX; first compound 0.03162 µM,0.741
same,relative viability,EKVX; first compound 0.1 µM,0.956
same,relative viability,EKVX; first compound 0.3162 µM,0.387
same,relative viability,EKVX; first compound 1 µM,0.522
same,relative viability,COR-L 105; first compound 0.01 µM,1.25
same,relative viability,COR-L 105; first compound 0.03162 µM,1.01
same,relative viability,COR-L 105; first compound 0.1 µM,1.01
same,relative viability,COR-L 105; first compound 0.3162 µM,1.09
same,relative viability,COR-L 105; first compound 1 µM,0.643
same,relative viability,NCI-H838; first compound 0.01 µM,1.1
same,relative viability,NCI-H838; first compound 0.03162 µM,1.07
same,relative viability,NCI-H838; first compound 0.1 µM,1.04
same,relative viability,NCI-H838; first compound 0.3162 µM,0.992
same,relative viability,NCI-H838; first compound 1 µM,0.553
same,relative viability,BEN; first compound 0.01 µM,0.714
same,relative viability,BEN; first compound 0.03162 µM,0.747
same,relative viability,BEN; first compound 0.1 µM,0.621
same,relative viability,BEN; first compound 0.3162 µM,0.507
same,relative viability,BEN; first compound 1 µM,0.596
same,relative viability,HARA; first compound 0.01 µM,0.888
same,relative viability,HARA; first compound 0.03162 µM,0.932
same,relative viability,HARA; first compound 0.1 µM,0.91
same,relative viability,HARA; first compound 0.3162 µM,0.866
same,relative viability,HARA; first compound 1 µM,0.197
same,relative viability,NCI-H1666; first compound 0.01 µM,1.03
same,relative viability,NCI-H1666; first compound 0.03162 µM,1.07
same,relative viability,NCI-H1666; first compound 0.1 µM,1.14
same,relative viability,NCI-H1666; first compound 0.3162 µM,1.12
same,relative viability,NCI-H1666; first compound 1 µM,0.849
same,relative viability,201T; first compound 0.01 µM,1.17
same,relative viability,201T; first compound 0.03162 µM,1.26
same,relative viability,201T; first compound 0.1 µM,1.11
same,relative viability,201T; first compound 0.3162 µM,0.961
same,relative viability,201T; first compound 1 µM,0.279
same,relative viability,NCI-H1650; first compound 0.01 µM,1.25
same,relative viability,NCI-H1650; first compound 0.03162 µM,0.931
same,relative viability,NCI-H1650; first compound 0.1 µM,1.14
same,relative viability,NCI-H1650; first compound 0.3162 µM,0.804
same,relative viability,NCI-H1650; first compound 1 µM,0.24
same,relative viability,PC-14; first compound 0.01 µM,1.04
same,relative viability,PC-14; first compound 0.03162 µM,0.927
same,relative viability,PC-14; first compound 0.1 µM,0.973
same,relative viability,PC-14; first compound 0.3162 µM,0.885
same,relative viability,PC-14; first compound 1 µM,0.361
same,relative viability,CAL-12T; first compound 0.01 µM,1.34
same,relative viability,CAL-12T; first compound 0.03162 µM,1.01
same,relative viability,CAL-12T; first compound 0.1 µM,1.13
same,relative viability,CAL-12T; first compound 0.3162 µM,0.874
same,relative viability,CAL-12T; first compound 1 µM,0.217
same,relative viability,NCI-H2009; first compound 0.01 µM,1.25
same,relative viability,NCI-H2009; first compound 0.03162 µM,1.27
same,relative viability,NCI-H2009; first compound 0.1 µM,1.27
same,relative viability,NCI-H2009; first compound 0.3162 µM,1.13
same,relative viability,NCI-H2009; first compound 1 µM,0.962
same,relative viability,SW 900; first compound 0.01 µM,0.777
same,relative viability,SW 900; first compound 0.03162 µM,0.84
same,relative viability,SW 900; first compound 0.1 µM,1.29
same,relative viability,SW 900; first compound 0.3162 µM,0.825
same,relative viability,SW 900; first compound 1 µM,0.533
same,relative viability,NCI-H661; first compound 0.01 µM,1.08
same,relative viability,NCI-H661; first compound 0.03162 µM,1.1
same,relative viability,NCI-H661; first compound 0.1 µM,1.12
same,relative viability,NCI-H661; first compound 0.3162 µM,1.03
same,relative viability,NCI-H661; first compound 1 µM,0.598
same,relative viability,COR-L23; first compound 0.01 µM,1.18
same,relative viability,COR-L23; first compound 0.03162 µM,0.955
same,relative viability,COR-L23; first compound 0.1 µM,1.08
same,relative viability,COR-L23; first compound 0.3162 µM,0.842
same,relative viability,COR-L23; first compound 1 µM,0.292
same,relative viability,NCI-H3122; first compound 0.01 µM,0.911
same,relative viability,NCI-H3122; first compound 0.03162 µM,0.905
same,relative viability,NCI-H3122; first compound 0.1 µM,0.995
same,relative viability,NCI-H3122; first compound 0.3162 µM,0.996
same,relative viability,NCI-H3122; first compound 1 µM,0.996
same,relative viability,NCI-H727; first compound 0.01 µM,0.989
same,relative viability,NCI-H727; first compound 0.03162 µM,0.804
same,relative viability,NCI-H727; first compound 0.1 µM,0.728
same,relative viability,NCI-H727; first compound 0.3162 µM,0.889
same,relative viability,NCI-H727; first compound 1 µM,0.466
same,relative viability,HCC-366; first compound 0.01 µM,0.954
same,relative viability,HCC-366; first compound 0.03162 µM,0.927
same,relative viability,HCC-366; first compound 0.1 µM,0.978
same,relative viability,HCC-366; first compound 0.3162 µM,0.973
same,relative viability,HCC-366; first compound 1 µM,0.312
same,relative viability,NCI-H2170; first compound 0.01 µM,0.925
same,relative viability,NCI-H2170; first compound 0.03162 µM,1.06
same,relative viability,NCI-H2170; first compound 0.1 µM,0.984
same,relative viability,NCI-H2170; first compound 0.3162 µM,1.04
same,relative viability,NCI-H2170; first compound 1 µM,1.13
